Experimental data as given in PubChem BioAssay AID1159559 (GlaxoSmithKline (GSK), 2015).
Activity calls are given as the source filed them.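 The calls were made as follows: active = compounds whose IC50 against parasite growth in infected mouse cells is below 50000 nM; inactive = the rest.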

System: T. cruzi Tulahuen in NIH-3T3, beta-gal fluorescence, 4 d
Experiment: anti-Chagas amastigote proliferation inhibitors – cell-based (AID 1159559)

Structure (SMILES)	IC50
Cc1cc2cc(CNc3ccc4c(c3)OCO4)c(=O)n(CCO)c2cc1C	0.63 µM
Cn1nc([N+](=O)[O-])nc1N1CCCCC1	1.3 µM
CCNc1cc(-c2ccccn2)nc(Nc2ccc(OC)cc2)n1	0.63 µM
Cc1[nH]nc(C(F)(F)F)c1NC(=O)CCn1cc(Cl)c([N+](=O)[O-])n1	7.9 µM
Cc1ccc(NC(=O)c2ccnc(N3CCCC3)c2)cc1-c1cc(C(N)=O)ccc1C	6.3 µM
CN(C)Cc1cccc(Nc2nccc(-c3ccc(NCCN)c(C#N)c3)n2)c1	1 µM
NC(=O)c1ncccc1Nc1nc(NC2CCC(O)CC2)ncc1Br (centres undefined)	1.6 µM
COc1ccc(C2=NCC(CSc3nnc(-c4ccc5c(c4)OCO5)o3)S2)cc1 (centres undefined)	2.5 µM
CNc1cc(Cn2c(C(=O)c3cc(C)cc(Cl)c3)c(C(C)C)c(=O)[nH]c2=O)ccn1	0.04 µM
COc1ccc(C(C)(C)C)cc1S(=O)(=O)n1ccnc1	0.13 µM
O=C(CN1CCC2(O)CCCCC2C1c1ccc2c(c1)OCO2)Nc1ccc(Cl)cc1Cl (centres undefined)	13 µM
CN(CCOc1ccc(Cl)cc1)Cc1nc(N)nc(N(C)C)n1	5 µM
NS(=O)(=O)c1ccc(Nc2nccc(-c3cnn4ncccc34)n2)cc1	2.5 µM
O=C(NC(CO)c1ccc(F)cc1)c1ccc(-c2c[nH]c3ncccc23)s1 (centres undefined)	10 µM
O=C(Cc1ccc2c(c1)CCC2)Nc1n[nH]c(-c2ccccn2)n1	10 µM
Nc1nc(-c2ccccn2)nc(N)c1Cc1c(F)cccc1Cl	1.6 µM
O=C(Nc1ncc([N+](=O)[O-])s1)C1CC1	0.4 µM
COc1ccc(CN2C(=O)C(O)(CC(=O)c3ccncc3)c3cc(Br)ccc32)cc1OC (centres undefined)	2.5 µM
CCNc1cc(-c2ccccn2)nc(Nc2ccccc2)n1	0.79 µM
c1ccc(CCNCc2cncc3nc(-c4cnccn4)n(C4CCCCC4)c23)cc1	0.32 µM
CC1=NN(C(=O)CCn2cnc([N+](=O)[O-])n2)C(O)(C(F)(F)F)C1 (centres undefined)	2 µM
O=C(c1ccc(O)c(Cl)c1)N1CCN(c2cnccn2)CC1	> 50 µM (inactive)

Structure (SMILES)	IC50
Cc1[nH]c2ccccc2c(=O)c1Cc1c(C)[nH]c2ccccc2c1=O	2.5 µM
O=C(CCc1ccc(-c2ccccc2)o1)N1CCN(c2ccc(O)cc2)CC1	3.2 µM
C[C@@H](Oc1cc(-n2cnc3ccc(O[C@H]4CCNC4)cc32)sc1C(N)=O)c1ccccc1Cl	3.2 µM
CCN(CC)S(=O)(=O)c1ccc(C)c(NC(=O)c2cc(Cl)c3c(c2)OCO3)c1	6.3 µM
Cn1nccc1-c1cc(OC(CN)c2ccccc2)cnc1-c1ccco1 (centres undefined)	0.4 µM
Cc1ccc(S(=O)(=O)Cn2nnnc2C(c2cccnc2)N2CCN(c3ccccc3)CC2)cc1 (centres undefined)	0.5 µM
NC(=O)c1ncc(N[C@@H]2CCCNC2)nc1Nc1cccc(Cl)c1	0.32 µM
COc1cc2c(cc1OC)[C@H]1[C@@H](C)c3ccc(OC)c(OC)c3CN1CC2	25 µM
CN(C)S(=O)(=O)c1ccc(Cl)c(C(=O)Nc2nc(-c3ccccn3)cs2)c1	1.6 µM
COc1ccc(C(=O)NC2CCN(CCn3c(=O)ccc4ncc(F)cc43)CC2)cc1Cl	0.5 µM
Cc1ccccc1CNC(=O)CN(Cc1ccccn1)Cc1ccccn1	5 µM
c1ccc(-c2nc(NC3CCCC3)c3ccccc3n2)nc1	2 µM
CCCN(Cc1ccc(OC)c(OC)c1)Cc1cc(=O)c2c(C)cc(C)cc2[nH]1	2 µM
N#Cc1ccc(S(=O)(=O)N2CCC3(CCN(c4ccccc4)C3=O)CC2)cc1	1.3 µM
CCC1Oc2cc(S(=O)(=O)N(C)CC(=O)N3CCc4ccccc4C3)c(C)cc2NC1=O (centres undefined)	0.2 µM
Cc1cc2nc(CN(C)Cc3ncccc3C)[nH]c2cc1C	0.5 µM
O=C(CN(Cc1ccccn1)Cc1ccccn1)NC1Cc2ccccc2C1	5 µM
Cn1cncc1CN1CCC2(CC1)COC(Cc1ccccc1)C2 (centres undefined)	0.32 µM
CC1CN(S(=O)(=O)c2ccc(NC(=O)c3cc(C4CC4)nc4c3cnn4C(C)C)cc2)CC(C)O1 (centres undefined)	0.63 µM
Fc1ccc(OC2CC(NCc3cccc4cn[nH]c34)C2)cc1C(F)(F)F (centres undefined)	0.79 µM
CN(Cc1nc2ccccc2s1)C(=O)C=Cc1cc2ccccc2o1	0.63 µM
CC(C)S(=O)(=O)c1ccc(-c2cnc(N)c3cc(-c4ccnc(N)n4)ccc23)cc1	0.79 µM

Structure (SMILES)	IC50
COc1ccc(C(=O)Nc2ccc(NC(=O)CO)cc2)cc1	> 50 µM (inactive)
CC(C)c1cc(Nc2cc(Cc3ccccc3)nc(NC3CCC(O)CC3)n2)n[nH]1 (centres undefined)	0.079 µM
COc1cc(NC(=O)Nc2cccc(CNC(=O)OC3CCCCC3)c2)ccc1-c1cnco1	1 µM
COCc1cc(Nc2ccccc2)nc(-c2ccccn2)n1	5 µM
CC1CCCCN1C(=O)NCCc1coc(-c2ccc(F)cc2)n1 (centres undefined)	0.4 µM
Cc1ccc(NC(=O)C(C)n2nc([N+](=O)[O-])c(Br)c2C)cc1Cl (centres undefined)	2.5 µM
CCOC(=O)c1noc(N)c1-c1ccccc1	> 50 µM (inactive)
COc1ccc(C(=O)[C@H]2C[C@@H]2CN(Cc2ccccn2)Cc2ccccn2)cc1	1.6 µM
CC(=O)NCCNc1cc(-c2ccnc(Nc3cccc(Cl)c3)n2)ccn1	0.4 µM
CCc1cccc(CC)c1-n1c(SCC(=O)NC(=O)NCc2ccco2)nnc1-c1cccnc1	13 µM
O=C(CC1(O)C(=O)N(Cc2cccs2)c2ccc(Br)cc21)c1cccnc1 (centres undefined)	5 µM
CCN(CC)S(=O)(=O)c1ccc(OC)c(NC(=O)c2ccc([N+](=O)[O-])s2)c1	0.25 µM
NC(N)=Nc1nc(-c2ccc(NC(N)=NCCN3CCCC3)cc2)cs1	> 50 µM (inactive)
CNC(=O)C1Cc2ccccc2N1C(=O)Cc1ccc(OC)cc1 (centres undefined)	> 50 µM (inactive)
Cc1cc(C)n(-c2nc(NC(C)C)nc(NC(C)(C)C)n2)n1	2 µM
CS(=O)(=O)NC1CCC(Oc2cc3cnccc3cc2-c2ccsc2)CC1 (centres undefined)	0.13 µM
O=C(Nc1ccc(C(F)(F)F)cc1)Nc1cccc([N+](=O)[O-])c1	1 µM
CNC(=O)C1Cc2ccccc2N1C(=O)Cc1ccc(F)cc1 (centres undefined)	> 50 µM (inactive)
COc1cnc2ccc(=O)n(CCN3CCC(NC/C=C/c4cc(F)ccc4F)CC3)c2c1	0.016 µM
CN(C)c1ccc(N)cc1CN(CC1CCCO1)S(C)(=O)=O (centres undefined)	> 50 µM (inactive)
Cc1cccc(Nc2nc(-c3ccccn3)cs2)n1	0.63 µM
Cc1cccc(NS(=O)(=O)c2ccc3c(c2)C(=O)c2cc(S(=O)(=O)Nc4cccc(C)c4C)ccc2-3)c1C	0.4 µM

Structure (SMILES)	IC50
O=C(c1cccc(Nc2ncc(-c3ccc4c(c3)OCO4)cn2)c1)N1CCSC1	2.5 µM
O=C(c1cc2cc(Cl)ccc2[nH]1)N1CCCCC1c1cccnc1 (centres undefined)	0.25 µM
CCc1ccccc1[C@@H](C)NC(=O)c1cnc2c(cnn2CC)c1NC1CCN(C(N)=O)CC1	25 µM
O=C(NCC(c1cccnc1)N1CCc2ccccc2C1)C(=O)Nc1cccc(Cl)c1 (centres undefined)	0.2 µM
O=C1OCc2ccc(Nc3nccc(-c4cnn5ncccc45)n3)cc21	0.025 µM
Fc1ccc(Nc2nc(-c3ccccn3)cs2)cc1	2.5 µM
COc1ccccc1C1CC(c2ccc(NS(C)(=O)=O)cc2)=NN1C(=O)c1cccs1 (centres undefined)	25 µM
O=C(CSc1nnc(-c2ccc3c(c2)OCO3)o1)N(Cc1ccco1)CC(F)(F)F	10 µM
CCCNC(=O)Nc1cccc(-c2nc3ncccc3o2)c1	2.5 µM
CC1(C)CCC(=Cc2ccc(Cl)cc2)CC1(O)Cn1ccnc1 (centres undefined)	0.0063 µM
CC(=O)Nc1ccc(-c2ccnc(Nc3cccc(C#N)c3)n2)cc1	6.3 µM
Clc1ccc(Sc2cnccc2N2CCOCC2)cc1	0.13 µM
CC(C)Oc1ccc(C(=O)Nc2ccc(N3CCOCC3)c(Cl)c2)cc1	1.6 µM
CCc1ccc2nc(NC(=O)c3cc(N4CCOCC4)ccn3)sc2c1	2.5 µM
Cc1nc2c(-c3nc(-c4ccc(N)cc4)n[nH]3)cccn2c1C	6.3 µM
O=S1N=C(NCCCN(Cc2ccc(F)cc2)c2ccccn2)C(NCc2ccncc2)=N1 (centres undefined)	32 µM
COc1ccc(-c2ccc3nnc(-c4ccc(O)c(OC)c4)n3c2)cn1	1.3 µM
COc1ccccc1C=CCN1C[C@H]2CCC[C@@H](C1)C2(O)c1cccnc1 (some centres undefined)	0.05 µM
c1ccc2sc(Nc3nc4ncccc4[nH]3)nc2c1	1 µM
Oc1c(-c2n[nH]c(Cc3ccc(F)cc3)n2)ncc2cccnc12	0.16 µM
COc1ncc(-c2ccc3nccc(-c4ccncc4)c3c2)cc1NS(=O)(=O)C1CC1	0.32 µM
O=C(NCCc1ccccn1)C(c1cn[nH]c1)N1CCN(c2ccc(Cl)c(Cl)c2)CC1 (centres undefined)	0.1 µM

Structure (SMILES)	IC50
COc1ccc([N+](=O)[O-])cc1NC(=O)c1cc(Cl)ccc1O	32 µM
O=C1COC(c2ccccc2)(c2ccccc2)CN1C1CCN(Cc2ccc(-n3ccnc3)cc2)CC1	1.6 µM
O=C(NC(c1ccc(Cl)cc1)c1cnccn1)C1CCN(C(=O)Nc2cccc(C(F)(F)F)c2)CC1 (centres undefined)	0.63 µM
Cc1nc2c(-c3ncn[nH]3)cc(NC(=O)Cc3ccccc3)cn2c1C	1 µM
CCCCNc1nccc(-c2c(-c3ccc(F)cc3)nn3c(N4CCOCC4)cccc23)n1	0.4 µM
COc1ccc2nccc(NC(=O)C3(OC)CCN(CC(O)c4ccc5c(c4)OCCO5)CC3)c2n1 (centres undefined)	0.25 µM
CS(=O)(=O)c1ccc(CC(=O)Nc2nc(-c3ccc(Cl)s3)cs2)cc1	0.4 µM
O=c1ccn(-c2ccc([N+](=O)[O-])cc2Cl)c2ccc(F)cc12	1.6 µM
O=C(CCCn1cnc([N+](=O)[O-])n1)Nc1cccc(Cl)c1	0.2 µM
CC(C)C[C@H](NC(=O)c1csc(-c2cccs2)n1)C(=O)NC1(C#N)CC1	25 µM
CC(=O)Nc1nc(-c2cc(C)ccc2C)c(C)s1	0.2 µM
COCCn1c(-c2ccccc2)cnc1NCc1ccccc1OC	13 µM
OC[C@@H](Nc1nccc(-c2c(-c3ccc(F)cc3)ncn2C2CCNCC2)n1)c1ccccc1	32 µM
Cc1cc2ncn(-c3ccc([N+](=O)[O-])cc3C#N)c2cc1C	1.3 µM
O=C(Nc1n[nH]c(-c2ccccn2)n1)C1CC1c1ccccc1 (centres undefined)	16 µM
CS(=O)(=O)N1CCC(Nc2ncc(Br)c(Nc3cccc(F)c3C(N)=O)n2)CC1	0.32 µM
Cc1ccc(NC(=O)c2ccc(Cl)c(NC(=O)c3ccc([N+](=O)[O-])cc3)c2)cc1	0.63 µM
Cc1ccc(NC(=O)c2ccc([N+](=O)[O-])s2)cc1S(=O)(=O)N1CCOCC1	0.2 µM
Cc1[nH]n2c(=O)c3c(nc2c1-c1ccc(F)cc1)CCCC3	1.6 µM
Fc1ccccc1N1C[C@H]2CCN(c3cccnc3)C[C@H]2C1	0.2 µM
CCCC(=O)N(Cc1ccccn1)c1nc2ccccc2s1	0.13 µM
